Measured values from publication PMC4929687 (Scientific Reports, 2014).

Target: T1, human kidney-type glutaminase (KGA), catalytic domain (cKGA) (Homo sapiens, UniProt O94925)
T1 sequence (O94925 221-533): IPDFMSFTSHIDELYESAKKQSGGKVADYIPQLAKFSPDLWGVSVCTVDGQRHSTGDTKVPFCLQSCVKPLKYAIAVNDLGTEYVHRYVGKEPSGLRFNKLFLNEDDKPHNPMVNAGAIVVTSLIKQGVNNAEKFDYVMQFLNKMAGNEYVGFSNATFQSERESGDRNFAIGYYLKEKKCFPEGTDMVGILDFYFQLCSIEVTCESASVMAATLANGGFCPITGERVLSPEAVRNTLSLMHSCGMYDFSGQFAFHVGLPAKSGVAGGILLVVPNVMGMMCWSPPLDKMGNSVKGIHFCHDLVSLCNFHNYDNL
Assay: X-ray crystal structure at […] Å
Type: biochemical

SMILES: [N-]=[N+]=CC(=O)CC[C@H](N)C(=O)O [DON, 6-diazo-5-oxo-L-norleucine]
- IC50: ~1000 µM
